Results on 1 compound are retold here after patent publication US20250115613A1, “DIARYL COMPOUND AS TUBULIN/SRC DUAL TARGET INHIBITOR” (Wuhan Humanwell Innovative Drug Research and Development …, priority 2022, published 2025).

In brackets after ≈: the same amount, converted by molar mass. Like-named read-outs stand apart in the source and are kept apart here.

For one data set, the system named is A-431 cells. The data set is described as follows: Inhibition of A-431 cell proliferation. Conditions: Homo sapiens, 96 h, incubated 4 days. In kind it is cell-based. On the procedure: (§1) Human cutaneous squamous cell carcinoma cell A-431 (ATCC, CRL-1555) and actinic keratosis patient-derived cell HT 297.T (ATCC, CRL-7782) proliferation assays were used to detect the inhibitory effect of small molecular compounds on cell proliferation.
(§2) A-431 cells and HT 297.T cells were cultured in DMEM medium containing 10% fetal bovine serum and grown at 37° C. in a 5% CO2 incubator. Cells on logarithmic phase were seeded into a 96-well cell culture plate at 1000 cells/well, 100 μL per well, and then cultured overnight at 37° C. in a 5% CO2 incubator. The next day, 100 μL of gradient-diluted 2× test compound solution was added to each well, with DMSO serving as a positive control, and 10 μM staurosporine (Aladdin, S102392) was set as a negative control group. After the addition of the compounds, the culture plate was incubated for another 4 days at 37° C. in a 5% CO2 incubator. After incubation, the Steady-Glo® luciferase assay system (Promega, G9243) was used according to the supplier's instructions to measure the fluorescence signal value on the Envision 2104 Multilabel Reader. The inhibition rate was calculated by the following formula, then the curve was plotted with the Log value of the inhibitor concentration as the X-axis and the inhibition rate as the Y-axis, and the IC50 was calculated using Graphpad 8.0.
(§3) Inhibition %=(positive control group signal−test well signal)/(positive control group signal−negative control group signal)*100

The nature of data set [1]: Pharmacokinetic test in mice. The format is in vivo. To be noted: mouse, plasma. The method, then: For the pharmacokinetic test in mice, 3 male ICR mice, 20 to 25 g, were used, fasted overnight, and administered by tail vein injection (1 mg/kg or 5 mg/kg). Blood was collected before the administration, and at 15 min, 30 min, 1 hour, 2 hours, 4 hours, 8 hours, and 24 hours after the administration. Another 3 mice were taken and administered by oral gavage (5 mg/kg), and blood was collected before the administration, and at 15 min, 30 min, 1 hour, 2 hours, 4 hours, 8 hours, and 24 hours after the administration. Blood samples were centrifuged at 6800 g at 2 to 8° C. for 6 min, and plasma was collected and stored at −80° C. The plasma at each time point was taken and added with an acetonitrile solution containing internal standard in 3 to 5 times the amount. The mixture was vortexed and mixed for 1 min, and centrifuged at 13,000 rpm at 4° C. for 10 min. The supernatant was collected, added with water in 3 times the amount, and mixed. An appropriate amount of the mixture was taken for LC-MS/MS analysis. The main pharmacokinetic parameters were analyzed using WinNonlin 7.0 software with non-compartmental model.

Data set [2] in a line: Human liver microsome stability test. In kind it is in vitro ADME. To be noted: human liver microsomes (Corning), NADPH, 37° C. The method, then: The human liver microsome stability test was performed by incubating the compound and human liver microsomes in vitro. First, the compound to be tested was prepared as a 10 mM stock solution in DMSO solvent, and then the compound was diluted to 0.5 mM with acetonitrile. Human liver microsomes (Corning) were diluted with PBS into a microsome/buffer solution, and the solution was used to dilute 0.5 mM compound into a working solution, in which the concentration of the compound was 1.5 μM, and the concentration of human liver microsomes was 0.75 mg/mL. A deep-well plate was taken, 30 μL of the working solution was added per well, and then 15 μL of pre-heated 6 mM NADPH solution was added thereto to initiate a reaction, and the reaction was incubated at 37° C. At 0 min, 5 min, 15 min, 30 min, and 45 min of the incubation, 135 μL of acetonitrile was added to the corresponding wells to terminate the reaction. After the reaction was terminated with acetonitrile at the last time point of 45 min, the deep-well plate was vortexed and shaken for 10 min (600 rpm), and then centrifuged for 15 min. After centrifugation, the supernatant was collected, and added with purified water in a ratio of 1:1 to perform LC-MS/MS detection. A ratio of a peak area of compound to a peak area of internal standard at each time point was obtained, and the peak area ratios of the compound at 5 min, 15 min, 30 min, and 45 min were compared with the peak area ratio at 0 min to calculate the remaining percentage of the compound at each time point. T1/2 was calculated by using Graphpad 5 software.

The nature of data set [3]: Thermodynamic solubility test. The format is physicochemical. To be noted: thermodynamic from solid. The method, then:
Phosphate buffer saline (PBS) with a pH of 7.4, FeSSIF solution with a pH of 6.5, and FaSSGF solution with a pH of 1.6 were prepared. The compound was accurately weighed and added to prepared phosphate buffer saline with a pH of 7.4, FeSSIF solution with a pH of 6.5, and FaSSGF solution with a pH of 1.6 to prepare into a solution with a concentration of 4 mg/mL. The solution was shaken at a speed of 1000 rpm for 1 hour, and then incubated overnight at room temperature. The incubated solution was centrifuged at 12,000 rpm for 10 minutes to remove undissolved particles, and the supernatant was transferred to a new centrifuge tube. After the supernatant was appropriately diluted, an acetonitrile solution containing internal standard was added, and a standard curve prepared with the same matrix was used for quantification.

In another data set the test system is HT 297.T cells. The experiment in a line: Inhibition of HT 297.T cell proliferation. The format is cell-based. Conditions: Homo sapiens, 96 h, incubated 4 days. On the procedure:
as §1, §2, §3

The subject of the next data set is tubulin monomer. The experiment in a line: Inhibition test of tubulin monomer polymerization (Tubulin polymerization assay kit). In kind it is biochemical. To be noted: maximum fluorescence signal of polymerization curve; 5 μL of 12.5 μM compound solution; 37° C.; higher value = lower inhibitory efficiency. On the procedure: Tubulin polymerization assay kit (cytoskeleton, Cat. #BK011P) was used to conduct the compound inhibition test of tubulin monomer polymerization.
Before the test, the 96-well plate (Corning Costar, Cat. #3686) supplied with the kit was first placed in a microplate reader (MD, SpectraMax M5) and heated to 37° C., maintained for 10 minutes. The 96-well plate was then removed, and 5 μL of 12.5 μM compound solution or blank solution was added thereto. The 96-well plate was then placed back into the microplate reader and incubated at 37° C. for 1 minute to heat the compound solution to 37° C. The 96-well plate was removed and 50 μL of reaction mixture prepared according to the supplier's instructions was quickly added to each well, completing the sample addition within 1 minute to avoid the formation of bubbles. The 96-well plate was then immediately placed back into the microplate reader, shaken for 5 seconds, and using the Kinetic mode, continuous detection was carried out at 37° C. for 30 to 60 minutes under the conditions of excitation light at 360 nm and emission light at 420 nm, with detection every 30 seconds. Taking the detection time as the X-axis and the fluorescence signal value as the Y-axis, the tubulin monomer polymerization curve was obtained. As shown in FIG. 1 and Table 1, the larger the Vmax value and the higher the maximum fluorescence signal value of the polymerization curve, the lower the inhibitory efficiency of the compound.

Setting [4] is: male, ICR, mice, oral gavage 5 mg/kg.
Where [5] appears, read: male ICR mice, intravenous injection 5 mg/kg.

In the case of `C[C@@H]1COCCN1CCOc1ccc(-c2ccc(CC(=O)NCc3ccccc3)nc2)c(F)c1` [Compound I-24B, (R)—N-benzyl-2-(5-(2-fluoro-4-(2-(3-methylmorpholino)ethoxy)phenyl)pyridin-2-yl)acetamide], the concentration for half-maximal inhibition (IC50) (as a rule, the point on the concentration scale where inhibition reaches its midpoint) was 6.47 nM with A-431 cells and 8.51 nM with HT 297.T cells. Also, the AUC(0-t) – broadly, the area under the concentration-time curve up to a stated or last time point – in data set [1] (setting [4]) turned out to be 1420 ng·h/mL; in data set [1] (setting [5]), 2780 ng·h/mL. Besides, the peak concentration (Cmax) (usually the peak of the concentration-time curve) in data set [1] (setting [4]) stood at 1230 ng/mL. The clearance (as a rule, the volume of plasma or blood freed of the substance per unit of time) in data set [1] (setting [5]) is 30.7 mL/min/kg. In data set [2], the half-life (commonly how long it takes for the measured level to halve) at 1 μM was determined as 13.9 min. Also, the solubility (as a rule, the dissolved amount per volume that the medium holds) is 69.8 µg/mL (≈ 150 µM) in data set [3] (FeSSIF solution, FeSSIF pH 6.5, incubated overnight at room temperature, read-out: Solubility FeSSIF (pH 6.5)) and 11.3 µg/mL (≈ 24.4 µM) in data set [3] (phosphate buffer saline (PBS), aqueous buffer, PBS pH 7.4, incubated overnight at room temperature, read-out: Solubility PBS (pH 7.4)). In the data set on tubulin monomer, the Maximum signal value is on record as 266.
